From patent publication US8779002B2, “Methods for treating a variety of diseases and conditions, and compounds useful therefor” (Salk Institute for Biological Studies, priority 2007, dated 2014)
pEC50: −log10 of the molar value. Read-outs that look alike come from different tables or passages of the source.

Key:
[1] = tested on: Schaffer collateral CA1 pyramidal cell synapses in rat hippocampal slices; test: LTP induction in hippocampal slices; parameters: key to LTP: + = positive result or enzyme activation
Source text: Hippocampal slices were exposed to J147 during the time indicated by the black bar. The field excitatory postsynaptic potential (fEPSP) slope is expressed as the percentage of the value immediately before the addition of J147.
The effect of J147 is dose-dependent. The hippocampal slices were untreated or exposed to J147 for the time indicated by the black bar, and weak tetanic stimulation was applied at time 0. The fEPSP slope is expressed as the percentage of the value immediately before the application of weak tetanic stimulation. FIG. 3B illustrates the time course of changes in the fEPSP slope.
To compare the data among the groups, the averages of the fEPSP slopes 30-60 min after tetanic stimulation were calculated as an index of LTP magnitude; the results are shown in FIG. 3C. All the data are the mean±SEM […] vs none.

Amyloid = test: Extracellular amyloid toxicity (cell culture); assay type: cell-based
HT22 cells = test: Chemical ischemia (iodoacetic acid) in HT22 mouse hippocampal cells; assay type: cell-based; parameters: key to In Vitro Ischemia, Mouse hippocampal cells: + = positive result or enzyme activation; settings: for Cell death caused by treatment of HT22 cells with 20 μM IAA: 20 μM iodoacetic acid for 2 hr, MTT after 24 hr
Experimental: FIG. 2 illustrates the ability of invention compounds CNB-001 and J147 to protect nerve cells from chemical ischemia. HT22 cells were treated with 20 μM iodoacetic acid for 2 hr alone or in the presence of varying concentrations of CNB-001 or J147. % survival was confirmed by microscopy and measured after 24 hr by the MTT assay.
Most cell culture models of ischemia utilize primary cortical cultures that are exposed to some form of oxygen and glucose deprivation. While these assays may come closer to mimicking the in vivo conditions than assays employing neuronal cell lines, they have a number of problems that make them difficult to use for the routine screening of potential neuroprotective compounds. The most serious problem is that the condition needed to kill a fixed percentage of cells are highly variable from experiment to experiment, making it very difficult to get accurate values for neuroprotective activity. In order to circumvent this and other problems, a mouse nerve cell line was used in combination with chemical ischemia as a screen for potential neuroprotective drugs for ischemia. To induce chemical ischemia, iodoacetic acid (IAA), a well known, irreversible inhibitor of the glycolytic enzyme glyceraldehyde 3-phosphate dehydrogenase (G3PDH) (see B. S. Winkler et al., Modulation of the Pasteur effect in retinal cells: implications for understanding compensatory metabolic mechanisms, in Exp Eye Res 76 (2003) 715-723) was used in combination with the HT22 mouse hippocampal cell line. IAA has been used in a number of other studies to induce ischemia in nerve cells. The changes following IAA treatment of neural cells are very similar to changes which have been seen in animal models of CNS trauma and ischemia. These include alterations in membrane potential, breakdown of phospholipids, loss of ATP, and an increase in reactive oxygen species. A 2 hr treatment of the HT22 cells with 20 μM IAA induces over 90% cell death 20 hr later. […]

Memory = test: Memory, animal models (Table 2); parameters: key: + = positive result or enzyme activation; settings: in vivo
primary cortical neurons = test: Trophic factor withdrawal (TFW) assay; assay type: cell-based, rat; settings: Rattus norvegicus, Primary cortical neuron
Experimental: FIG. 1A illustrates the results of a trophic factor withdrawal assay. Primary cortical neurons are prepared from 18-day-old rat embryos, and cultured at low cell density 1×10^6/35 mm dish, in serum containing medium, with different compounds Viability is then assayed 2 days later using a fluorescent live-dead assay (Molecular Probes).
Primary cortical neurons can be prepared from 18-day-old embryos of Sprague-Dawley rats as described (Liu & Schubert, J. Neurochem., 1997, 69:2285-2293 and J. Neurochem., 1998, 71:2322-2329). Briefly, the cerebral cortex is dissected out under an anatomical microscope and is freed of meninges and blood vessels. The cortex is cut into small pieces and is then dissociated by trypsin digestion and passed through a pipette tip. Dissociated neurons are suspended in various media and plated on polylysine-coated 35 mm tissue culture dishes (e.g., 1×10^6 cells/dish). Several different culture conditions can be used as known in the art. Invention compounds can be added to cell culture dishes. Cell survival can be measured 1-2 days after compound administration.
A serum-containing medium can be used which includes a minimal essential medium (Sigma) containing 30 mM glucose, 2 mM glutamine, 1 mM pyruvate, penicillin (100 U/ml), streptomycin (100 μg/ml), and 10% fetal calf serum. At a plating density of 1×10^6 cells/dish, most neurons die after one week of culture in this medium. If plated at a density of 2×10^6 cells/dish, then most neurons survive. The cell density-dependent neuronal survival in this system is most likely dependent on the neurotrophic factors secreted by the neurons, not by the glia. The results are the same when glial proliferation is inhibited by cytosine arabinoside.
The structure-activity relationships of compounds according to the present invention can be determined by measuring trophic factor withdrawal in […] primary cortical neurons. As shown in FIG. 1A-FIG. 1D, compounds are added to low density primary cultures of E18 rat cortical neurons at the time of plating, and cell survival is determined two days later by a variety of methods.

MC-65 cells = test: MC65 intracellular amyloid toxicity assay; assay type: cell-based; settings: for pEC50: MC65; for Protection against intracellular protein aggregation and toxicity: MC-65 cells, tetracycline removal, MTT 5 days later
Experimental: FIG. 4A illustrates the viability of MC-65 cells upon exposure to the indicated concentrations of compounds, and the degree to which synthesis of the C-terminal fragment of APP is induced by the removal of tetracycline. Cell death was determined 5 days later by the MTT assay and confirmed visually. The data are plotted as percent viable, relative to controls of drug plus un-induced cells.

CaM Kinase II alpha = test: CaM Kinase II activation; assay type: cell-based; parameters: key: + = positive result or enzyme activation
Experimental: Invention compounds have the ability to activate CaM Kinase II alpha, a key enzyme involved in memory formation.
To evaluate the ability of a test compound to activate CaM Kinase II alpha, HT22 hippocampal neurons or one week old cortical neurons from embryonic 18 day rats can be prepared according to published procedures (e.g., Soucek et al., Neuron 39:43-56 (2003) and Li et al., Neuron 19:453-463 (1997)). Thus, for example, suitable cells can be treated with 1-2 μM of an exemplary invention compound for a suitable amount of time (e.g., 15, 30, 60 or 120 minutes).
Cells are then lysed and applied to a suitable gel for separation (e.g., P81 phosphocellulose paper, polyacrylamide gel containing SDS, and the like). CaMKII activity can then be assayed using an antibody that recognizes phosphothreonine from both the alpha and beta chains of CaM Kinase II. Invention compounds promote an increase in CaMKII activity of 10% or greater.

[2] = Cell Culture (Table 2), read-out: Trophic Factor Withdrawal
[3] = Cell Culture, read-out: Amyloid Toxicity, Intracellular

SMILES | LTP [1] | pEC50 (Amyloid) | In Vitro Ischemia, Mouse hippocampal cells (HT22 cells) | Cell death caused by treatment of HT22 cells with 20 μM IAA (HT22 cells) | Memory (Memory) | Memory, Animal (Memory) | pEC50 (primary cortical neurons; [2]) | pEC50 (MC-65 cells; [3]) | Protection against intracellular protein aggregation and toxicity (MC-65 cells) | CaMKinase II (CaM Kinase II alpha) | Induction of LTP ([1]; after a weak tetanic stimulation (15 pulses at 100 Hz), fEPSP slope) | Basal synaptic transmission ([1]; fEPSP slope, J147 1 μM) | pEC50 (primary cortical neurons; Trophic factor withdrawal assay, read-out: TFW EC50) | pEC50 (MC-65 cells; Intracellular amyloid toxicity, read-out: MC65 EC50)
COc1cc(/C=C/c2cc(/C=C/c3ccc(O)c(OC)c3)n(-c3ccccc3)n2)ccc1O [CNB-001] | + | 6.30 | + | can be prevented | + | + | 6.30 | 6.70 | neuroprotective | + |  |  |  | 
COc1cccc(/C=N/N(C(=O)C(F)(F)F)c2ccc(C)cc2C)c1 [Compound J147] | + | 8.00 |  | can be prevented | + | + | 8.00 | 8.52 | neuroprotective | + | facilitate the induction of LTP | does not affect basal synaptic transmission | 7.30 | 8.00
